The values below are quoted from earlier work in patent US6800456B2, “Modified forms of hepatitis C NS3 protease for facilitating inhibitor screening and structural studies of protease:inhibitor complexes” (Bristol-Myers Squibb Company, priority 1999, dated 2004).

Square brackets hold non-standard residues; d marks the D form. Cha = N[C@@H](CC1CCCCC1)C(=O)O

For the data set, the target named is HCV protease (Hepatitis C virus genotype 1a, UniProt P26664). To be noted: Ingallinella et al., Biochemistry 37, 8906-8914 (1998).
Sequence of HCV protease (P26664 1027-1206 limits assumed, other chains not shown): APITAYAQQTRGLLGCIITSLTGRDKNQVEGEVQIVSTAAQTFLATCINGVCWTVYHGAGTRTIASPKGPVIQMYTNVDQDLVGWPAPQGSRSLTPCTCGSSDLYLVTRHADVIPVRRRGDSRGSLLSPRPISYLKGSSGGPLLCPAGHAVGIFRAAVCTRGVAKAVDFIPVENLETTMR

On to Ac-D[dE]LI[Cha]C-OH, for which the IC50 was 15 nM.

The term IC50 denotes the midpoint of a concentration-inhibition curve.
